{"source": "ChEMBL document CHEMBL6127046", "about": "“Design, synthesis, and preclinical evaluation of 11C/18F-labeled inhibitors for RIPK1 PET imaging” (Eur J Med Chem, 2024)", "key": {"L929": {"test_system": "L929", "experiment": "Anti-necroptosis activity against TNFalpha/Z-VAD-FMK-induced mouse L929 cell necroptosis model assessed as cell viability incubated for 24 hrs by CCK8 assay", "format": "functional, cell-based", "settings": "L929, 24 h; call rule not given here"}, "[1]": {"experiment": "Drug metabolism in mouse plasma assessed as retention time", "format": "ADME, cell-free"}, "[2]": {"experiment": "Drug metabolism in mouse blood measured after 10 to 12 mins by HPLC analysis", "format": "ADME, tissue-based", "settings": "time 10-12 min"}, "[3]": {"experiment": "Metabolic stability in mouse plasma assessed as remaining compound measured at 30 mins by HPLC analysis", "format": "ADME, cell-free", "settings": "read-out: Stability"}, "[4]": {"experiment": "Drug metabolism in mouse plasma measured at 11 mins", "format": "ADME, cell-free"}, "[5]": {"experiment": "Drug uptake in mouse brain in presence of 1-(7-fluoro-2,3-dihydrobenzo[f][1,4]oxazepin-4(5H)-yl)-2,2-dimethylbutan-1-one by autoradiography", "format": "ADME, tissue-based", "settings": "in vivo"}, "[6]": {"experiment": "Metabolic stability in mouse brain assessed as remaining compound measured at 5 mins by HPLC analysis", "format": "ADME, tissue-based", "settings": "read-out: Stability"}, "[7]": {"experiment": "Drug uptake in mouse hippocampus measured upto 60 mins by PET imaging method", "format": "ADME", "settings": "in vivo, 1 h"}, "[8]": {"experiment": "Drug uptake in mouse striatum measured upto 60 mins by PET imaging method", "format": "ADME", "settings": "in vivo, 1 h"}, "[9]": {"experiment": "Drug uptake in mouse brain in presence of Nec-1s by autoradiography", "format": "ADME, tissue-based", "settings": "in vivo"}, "[10]": {"experiment": "Drug metabolism in mouse brain measured after 10 to 12 mins by HPLC analysis", "format": "ADME, tissue-based", "settings": "time 10-12 min"}, "[11]": {"experiment": "Drug uptake in mouse thalamus measured upto 60 mins by PET imaging method", "format": "ADME", "settings": "in vivo, 1 h"}, "[12]": {"experiment": "Metabolic stability in mouse plasma assessed as remaining compound measured at 10 mins by HPLC analysis", "format": "ADME, cell-free", "settings": "read-out: Stability"}, "[13]": {"experiment": "Drug uptake in mouse brain assessed as maximum standardized uptake value measured upto 60 mins by PET imaging method", "format": "ADME, tissue-based", "settings": "in vivo, 1 h"}, "[14]": {"experiment": "Metabolic stability in mouse brain assessed as remaining compound measured at 30 mins by HPLC analysis", "format": "ADME, tissue-based", "settings": "read-out: Stability"}, "[15]": {"experiment": "Metabolic stability in mouse plasma assessed as remaining compound measured at 5 mins by HPLC analysis", "format": "ADME, cell-free", "settings": "read-out: Stability"}, "HT-29": {"test_system": "HT-29", "experiment": "Anti-necroptosis activity against TNFalpha/SM-164/Z-VAD-FMK-induced human HT-29 cell necroptosis model assessed as cell viability incubated for 24 hrs by CCK8 assay", "format": "functional, cell-based", "settings": "HT-29, 24 h"}, "U-937": {"test_system": "U-937", "experiment": "Anti-necroptosis activity against TNFalpha/SM-164/Z-VAD-FMK-induced human U-937 cell necroptosis model assessed as cell viability incubated for 24 hrs by CCK8 assay", "format": "functional, cell-based", "settings": "U-937, 24 h"}, "[16]": {"experiment": "Lipophilicity, logD of compound at pH 7.4 by shake-flask method", "format": "physicochemical", "settings": "buffer"}, "[17]": {"target": "T1, Receptor-interacting serine/threonine-protein kinase 1 (Homo sapiens, UniProt Q13546)", "T1 sequence (Q13546 whole entry)": "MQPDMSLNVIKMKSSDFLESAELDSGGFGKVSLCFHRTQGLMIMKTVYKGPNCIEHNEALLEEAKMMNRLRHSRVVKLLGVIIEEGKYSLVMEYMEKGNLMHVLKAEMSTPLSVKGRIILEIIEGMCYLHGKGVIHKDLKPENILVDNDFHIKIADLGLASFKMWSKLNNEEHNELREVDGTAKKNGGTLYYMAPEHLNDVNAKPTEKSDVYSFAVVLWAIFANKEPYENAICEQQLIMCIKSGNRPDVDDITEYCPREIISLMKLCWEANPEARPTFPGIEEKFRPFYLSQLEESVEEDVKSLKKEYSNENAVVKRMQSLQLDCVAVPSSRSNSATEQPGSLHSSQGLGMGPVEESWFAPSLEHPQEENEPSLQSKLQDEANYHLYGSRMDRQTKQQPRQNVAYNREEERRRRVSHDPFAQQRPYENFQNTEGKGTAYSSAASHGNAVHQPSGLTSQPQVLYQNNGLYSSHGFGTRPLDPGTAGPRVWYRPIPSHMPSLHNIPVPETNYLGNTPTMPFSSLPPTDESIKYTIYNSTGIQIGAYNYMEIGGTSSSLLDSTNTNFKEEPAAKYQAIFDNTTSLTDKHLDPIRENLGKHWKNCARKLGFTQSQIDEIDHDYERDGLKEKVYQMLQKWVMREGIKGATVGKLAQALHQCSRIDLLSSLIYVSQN", "experiment": "Binding affinity to RIPK1 (unknown origin) by KINOMEscan method"}}, "data": [{"smiles": "CCC(C)(C)C(=O)N1CCOc2ccc(OC)cc2C1", "values": [{"measurement": "EC50", "setting": "L929", "result": 8960, "unit": "nM"}]}, {"smiles": "COc1ccc2c(c1)CN(C(=O)C1CCN(c3ncc(F)cn3)CC1)CCO2", "values": [{"measurement": "EC50", "setting": "L929", "result": 2580, "unit": "nM"}]}, {"smiles": "CCC(C)(C)C(=O)N1CCOc2ccc([18F])cc2C1", "values": [{"measurement": "Retention_time", "setting": "[1]", "result": 2.8, "unit": "min"}, {"measurement": "Drug metabolism", "setting": "[2]", "result": "Metabolite_Detected"}, {"measurement": "remaining at 0.5 h", "setting": "[3]", "result": 25, "unit": "%"}, {"measurement": "Drug metabolism", "setting": "[4]", "result": "Metabolite_Detected"}, {"measurement": "Drug uptake", "setting": "[5]", "result": "Not Active"}, {"measurement": "remaining at 5 min", "setting": "[6]", "result": 86, "unit": "%"}, {"measurement": "Drug uptake", "setting": "[7]", "result": "Active"}, {"measurement": "Drug uptake", "setting": "[8]", "result": "Active"}, {"measurement": "Drug uptake", "setting": "[9]", "result": "Not Active"}, {"measurement": "Drug metabolism", "setting": "[10]", "result": "Metabolite_Detected"}, {"measurement": "Drug uptake", "setting": "[11]", "result": "Active"}, {"measurement": "remaining at 10 min", "setting": "[12]", "result": 51, "unit": "%"}, {"measurement": "SUVmax", "setting": "[13]", "result": 1.5}, {"measurement": "remaining at 0.5 h", "setting": "[14]", "result": 44, "unit": "%"}, {"measurement": "remaining at 5 min", "setting": "[15]", "result": 72, "unit": "%"}]}, {"smiles": "COc1nc(N2CCC(C(=O)N3CCOc4ccc(Br)cc4C3)CC2)ncc1F", "values": [{"measurement": "EC50", "setting": "L929", "result": 5210, "unit": "nM"}]}, {"smiles": "COc1cnc(N2CCC(C(=O)N3CCOc4ccc(F)cc4C3)CC2)nc1", "values": [{"measurement": "EC50", "setting": "HT-29", "result": 200, "unit": "nM"}, {"measurement": "EC50", "setting": "U-937", "result": 2200, "unit": "nM"}, {"measurement": "EC50", "setting": "L929", "result": 380, "unit": "nM"}, {"measurement": "logD", "setting": "[16]", "result": 1.8}]}, {"smiles": "O=C(C1CCN(c2ncc([18F])cn2)CC1)N1CCOc2ccc(F)cc2C1", "values": [{"measurement": "SUVmax", "setting": "[13]", "result": 1.5}]}, {"smiles": "O=C(C1CCN(c2ncc(O)cn2)CC1)N1CCOc2ccc(F)cc2C1", "values": [{"measurement": "EC50", "setting": "L929", "result": "> 10000", "unit": "nM"}]}, {"smiles": "O=C(C1CCN(c2ncc(F)cn2)CC1)N1CCOc2ccc(O)cc2C1", "values": [{"measurement": "EC50", "setting": "L929", "result": "> 10000", "unit": "nM"}]}, {"smiles": "CCC(C)(C)C(=O)N1CCOc2ccc(O)cc2C1", "values": [{"measurement": "EC50", "setting": "L929", "result": "> 10000", "unit": "nM"}]}, {"smiles": "CCC(C)(C)C(=O)N1CCOc2ccc(F)cc2C1", "values": [{"measurement": "EC50", "setting": "HT-29", "result": 8.04, "unit": "nM"}, {"measurement": "EC50", "setting": "U-937", "result": 24.9, "unit": "nM"}, {"measurement": "Kd", "setting": "[17]", "result": 18, "unit": "nM"}, {"measurement": "EC50", "setting": "L929", "result": 20, "unit": "nM"}, {"measurement": "logD", "setting": "[16]", "result": 3.1}]}, {"smiles": "CC(C)C(=O)Nc1nc2cc(-c3ccc4c(c3)c(C(=O)NC(C)c3ccccc3)cn4C)ccn2n1", "note": "(stereo unspecified)", "values": [{"measurement": "EC50", "setting": "HT-29", "result": 12.5, "unit": "nM"}, {"measurement": "EC50", "setting": "U-937", "result": 12.4, "unit": "nM"}, {"measurement": "EC50", "setting": "L929", "result": 4, "unit": "nM"}]}, {"smiles": "O=C(C1CCN(c2ncc(Br)cn2)CC1)N1CCOc2ccccc2C1", "values": [{"measurement": "EC50", "setting": "L929", "result": "> 10000", "unit": "nM"}]}, {"smiles": "O=C(C1CCN(c2ncc(F)cn2)CC1)N1CCOc2ccccc2C1", "values": [{"measurement": "EC50", "setting": "L929", "result": 830, "unit": "nM"}]}, {"smiles": "COc1nc(N2CCC(C(=O)N3CCOc4ccc(F)cc4C3)CC2)ncc1F", "values": [{"measurement": "EC50", "setting": "L929", "result": 6570, "unit": "nM"}]}, {"smiles": "O=C(C1CCN(c2ncc(F)cn2)CC1)N1CCOc2ccc(F)cc2C1", "values": [{"measurement": "EC50", "setting": "HT-29", "result": 5120, "unit": "nM"}, {"measurement": "EC50", "setting": "U-937", "result": 2760, "unit": "nM"}, {"measurement": "EC50", "setting": "L929", "result": 770, "unit": "nM"}, {"measurement": "logD", "setting": "[16]", "result": 2.2}]}, {"smiles": "O=C(C1CCN(c2ncc(Br)cn2)CC1)N1CCOc2ccc(F)cc2C1", "values": [{"measurement": "EC50", "setting": "L929", "result": 2320, "unit": "nM"}]}, {"smiles": "O=C(C1CCN(c2ncc(Br)cn2)CC1)N1CCOc2ccc(Br)cc2C1", "values": [{"measurement": "EC50", "setting": "L929", "result": "> 10000", "unit": "nM"}]}, {"smiles": "O=C(C1CCN(c2ncc(F)cn2)CC1)N1CCOc2ccc(Br)cc2C1", "values": [{"measurement": "EC50", "setting": "L929", "result": 6930, "unit": "nM"}]}, {"smiles": "COc1cnc(N2CCC(C(=O)N3CCOc4ccccc4C3)CC2)nc1", "values": [{"measurement": "EC50", "setting": "L929", "result": 4230, "unit": "nM"}]}, {"smiles": "[11CH3]Oc1cnc(N2CCC(C(=O)N3CCOc4ccc(F)cc4C3)CC2)nc1", "values": [{"measurement": "SUVmax", "setting": "[13]", "result": 0.8}]}]}
